# Entries after “also recorded” stand apart in the source; their conditions may differ.
# Legend:
# E. coli ATCC 25922 [1] = assay: Minimum Inhibitory Concentration (MIC) test; format: cell-based; conditions: for MIC: E. coli ATCC 25922, Mueller-Hinton broth, overnight 37° C., HFBA salts except 1* (sulphate); for antimicrobial activity against E. coli ATCC 25922 (in words): Kirby-Bauer Disk Test and MIC, summary statement
# Experimental: All test solutions contained 40 nmol of antibiotic. After drying, the samples were resuspended in 100 μL of Mueller-Hinton broth. Each solution of antibiotic in broth media was pipetted in the first lane of a 96 well plate (volume of well 500 μL). The remaining lanes were filled with 50 μL of E. coli ATCC 25922 culture with an OD600 of 0.264. Series of 2-fold dilution were made removing from the first lane 50 μL of the antibiotic solution and resuspending it with the culture contained in the next well. At the end, all wells were filled with 100 μL of E. coli ATCC 25922 culture in Mueller-Hinton with an OD600 of 0.132 (0.5 McFarland) and the appropriate amount of antibiotic. The 96-well plates were incubated overnight at 37° C. and 350 RPM shaking.
# E. coli ATCC 25922 [2] = assay: Kirby-Bauer disk test (zone of inhibition); format: cell-based; conditions: amount 17.5 nmol per disk, HFBA salts except 1* (sulphate)
# Experimental: Antibiotic disks preparation. Paper disks (6 mm diameter, BBL Microbiology Systems) were wetted through with 20, 25, 30 and 35 μL of a solution containing the antibiotic sample at a concentration of 0.5 nmol/μL. The wet disks were dried in a desiccator overnight, and used the next day.
# Culture preparation. A colony picked from a freshly made plate of the bacteria strain E. coli ATCC 25922 was used to inoculate 20 mL of Mueller-Hinton broth and the obtained culture was grown overnight at 37° C. and 250 RPM shaking.
# Kirby-Bauer test procedure. A new culture was made adding 1 mL of overnight culture in 99 mL of fresh Mueller-Hinton broth. The culture was grown at 37° C. and 250 RPM shaking until it reached an OD600 of 0.132 (0.5 McFarland) and a series of Mueller-Ilinton-Agar plates preheated at 37° C. were inoculated spreading 200 μL of that culture with sterile cotton. The plates were then dried for 30 minutes. Then on each plate 3 or 4 antibiotic paper disks were placed. The plates were incubated overnight at 37° C. and subsequently the diameter of the inhibition growth zone was measured.
Molecule,MIC (E. coli ATCC 25922 [1]) [µM],Diameter (zones of inhibition as determined by Kirby-Bauer disk method) (E. coli ATCC 25922 [2]) [mm],"MIC (E. coli ATCC 25922 [1]; Escherichia coli, ATCC25922) [µM]",antimicrobial activity against E. coli ATCC 25922 (in words) (E. coli ATCC 25922 [1])
"NCC1OC(OC2C(CO)OC(OC3C(O)C(N)CC(N)C3OC3OC(CN)C(O)C(O)C3N)C2O)C(N)C(O)C1O.O=C(O)C(F)(F)C(F)(F)C(F)(F)F.O=C(O)C(F)(F)C(F)(F)C(F)(F)F.O=C(O)C(F)(F)C(F)(F)C(F)(F)F.O=C(O)C(F)(F)C(F)(F)C(F)(F)F.O=C(O)C(F)(F)C(F)(F)C(F)(F)F.O=C(O)C(F)(F)C(F)(F)C(F)(F)F (centres unmarked) [1^, neomycin B×6 HFBA, reference compound]",3.1,16.1,,
"NC[C@@H]1O[C@H](O[C@H]2[C@@H](O)[C@H](O[C@@H]3[C@@H](O)[C@H](N)C[C@H](N)[C@H]3O[C@H]3O[C@H](CO)[C@@H](O)[C@H](O)[C@H]3N)O[C@@H]2CO)[C@H](N)[C@@H](O)[C@@H]1O [2^, paromomycin, reference compound]",,13.2,12.5,
"CC(=O)NCC1O[C@H](OC2C(O)[C@H](OC3C(O)[C@H](N)CC(N)[C@H]3O[C@H]3OC(CN)[C@@H](O)C(O)C3N)O[C@@H]2CO)C(N)C(O)[C@@H]1O (some centres unmarked) [5a, N^6(VI)-acetyl neomycin B]",,13.9,6.3,still highly active
CC(C)C(=O)NCC1O[C@H](OC2C(O)[C@H](OC3C(O)[C@H](N)CC(N)[C@H]3O[C@H]3OC(CN)[C@@H](O)C(O)C3N)O[C@@H]2CO)C(N)C(O)[C@@H]1O (some centres unmarked) [compound 6],,11.5,12.5,still highly active; also recorded: same biological activity as paromomycin 2
"neomycin B [compound 1, reference compound]",3.1,,,
